Source: US8735584B2 (Merck Patent GmbH, priority 2008, dated 2014)

Molecular target: T1, GST-Aurora A (Homo sapiens, UniProt O14965)
T1 construct: N-terminal GST fusion with full length Aurora A (1-403 amino acids); purchased Carna Biosciences 05-101
T1 sequence (O14965 1-403): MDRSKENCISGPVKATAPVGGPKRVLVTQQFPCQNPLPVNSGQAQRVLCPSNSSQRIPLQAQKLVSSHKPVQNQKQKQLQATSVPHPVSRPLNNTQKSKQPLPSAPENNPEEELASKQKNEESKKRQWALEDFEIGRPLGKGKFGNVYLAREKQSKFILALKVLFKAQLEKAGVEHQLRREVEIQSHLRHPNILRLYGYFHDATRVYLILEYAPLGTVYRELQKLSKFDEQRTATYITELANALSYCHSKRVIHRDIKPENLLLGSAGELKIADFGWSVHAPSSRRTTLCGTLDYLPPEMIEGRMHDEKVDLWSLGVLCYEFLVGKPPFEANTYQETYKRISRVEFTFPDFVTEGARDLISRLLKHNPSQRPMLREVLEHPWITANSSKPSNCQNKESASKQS
Assay: Aurora A IC50, Caliper LC3000 mobility shift assay
Format: biochemical
Conditions: LC3000 method; 15 uM ATP (the KM value); read-out: Aurora Kinase A Activity (IC50)
Protocol: The Aurora assays described here are performed on two Caliper Life Sciences systems: the LC3000 and the Desktop Profiler. These provide data on enzyme activity via measurement of the relative amounts of phosphorylated or unphosphorylated fluorescently labelled substrate peptide at the end of an enzymatic reaction. These different states of peptide are resolved by applying a potential difference across the sample. The presence of the charged phosphate group on the product (as opposed to the substrate) causes a different peptide mobility between the two peptides. This is visualized by excitation of the fluorescent label on the substrate and product peptides and represented as peaks within the analysis software.
In order to measure inhibitor activity of Aurora A inhibitors in the Caliper Life Sciences LC3000, a TTP Mosquito liquid handling instrument is used to place 0.25 ul of the appropriate concentration of inhibitor in 100% DMSO (for a dose response curve calculation) into each well of a 384-well plate. To this reaction components are added to a final volume of 25 ul: • 0.067 ng/ul GST-Aurora A (Carna Biosciences 05-101. N-terminal GST fusion with full length Aurora A (1-403 amino acids), accession number NP 940835.1). • 15 uM ATP (Fluke, 02055) • 1 mM DTT (Sigma, D0632) • 1 mM MgCl2 (Sigma, M1028) • 1 uM substrate peptide (sequence FITC-LRRASLG-(CONH2), synthesized by Tufts Peptide Synthesis service. • 100 mM HEPES pH 7.5 (Calbiochem, 391338) • 0.015% Brij-35 (Sigma, B4184)
The reaction is incubated for 90 min at 25 C, and then stopped by the addition of 70 ul of Stop buffer (100 mM HEPES pH 7.5, 0.015% Brij-35, 10 mM EDTA (Sigma, E7889)).
The plate is read on a Caliper LC3000 in an Off-Chip mobility shift assay format, using the following parameters for a 12-sipper chip: screening pressure—1.8 psi, upstream voltage—2700, downstream voltage—1000. These conditions cause unphosphorylated substrate and phosphorylated product peptide to resolve as separate peaks allowing direct measurement of percentage of conversion of substrate to product. The percent conversion can be plotted against concentration of inhibitor to produce a sigmoidal dose response curve, from which an 1050 can be calculated using XLFit for Microsoft Excel.
In the desired wells of a 384-well plate, Aurora A (0.067 ng/ul) was incubated with 15 uM ATP (the KM value), 1 mM DTT, 1 mM MgCl2, and 1 uM peptide substrate (sequence FITC-LRRASLG-(CONH2), FITC=fluorescein isothiocyanate) in 100 mM HEPES pH 7.5 and 0.015% Brij-35 buffer. The reaction was incubated for 90 min at 25 C, and then stopped by the addition of 45 ul of Stop buffer (100 mM HEPES ph 7.5, 0.015% Brij-35, 10 mM EDTA).
The plate was read in a Caliper LC 3000 in an Off-Chip mobility shift assay format, using the following parameters: screening pressure—1.8 psi, upstream voltage—2700, downstream voltage—1000. These conditions cause unphosphorylated substrate peptide to resolve as a peak before that of the phosphorylated peptide product.
In the following table “+” means >100 nM, “++” means 11-100 nM, and “+++” means <11 nM.

| IC50 [nM] | SMILES |
| --- | --- |
| > 100 | CN1CCC(C(=O)Nc2ccc(Nc3ccnc4[nH]c(=O)c5ccccc5c34)cc2)CC1 [Compound 346, 1-Methyl-N-(4-(6-oxo-5,6-dihydrobenzo[c][1,8]naphthyridin-1-ylamino)phenyl)piperidine-4-carboxamide] |
| > 100 | O=C(Nc1ccc(Nc2ccnc3[nH]c(=O)c4ccccc4c23)cc1)C(F)(F)F [Compound 348, 2,2,2-Trifluoro-N-(4-(6-oxo-5,6-dihydrobenzo[c][1,8]naphthyridin-1-ylamino)phenyl)acetamide] |
| < 11 | O=C(CC(F)(F)F)Nc1ccc(Nc2ccnc3[nH]c(=O)c4ccccc4c23)cc1 [Compound 349, 3,3,3-Trifluoro-N-(4-(6-oxo-5,6-dihydrobenzo[c][1,8]naphthyridin-1-ylamino)phenyl)propanamide] |
| 11 to 100 | O=C(Cc1ccccc1)Nc1ccc(Nc2ccnc3[nH]c(=O)c4ccccc4c23)cc1 [Compound 350, N-(4-(6-Oxo-5,6-dihydrobenzo[c][1,8]naphthyridin-1-ylamino)phenyl)-2-phenylacetamide] |
| 11 to 100 | O=C(Nc1ccc(Nc2ccnc3[nH]c(=O)c4ccccc4c23)cc1)C1CC1 [Compound 351, N-(4-(6-Oxo-5,6-dihydrobenzo[c][1,8]naphthyridin-1-ylamino)phenyl)cyclopropanecarboxamide] |
| 11 to 100 | O=C(CC1CC1)Nc1ccc(Nc2ccnc3[nH]c(=O)c4ccccc4c23)cc1 [Compound 352, 2-Cyclopropyl-N-(4-(6-oxo-5,6-dihydrobenzo[c][1,8]naphthyridin-1-ylamino)phenyl)acetamide] |
| > 100 | CN1CCN(Cc2cccc(C(=O)Nc3ccc(Nc4ccnc5[nH]c(=O)c6ccccc6c45)cc3)c2)CC1 [Compound 354, 3-((4-Methylpiperazin-1-yl)methyl)-N-(4-(6-oxo-5,6-dihydrobenzo[c][1,8]naphthyridin-1-ylamino)phenyl)benzamide] |
| > 100 | CN1CCN(Cc2ccccc2C(=O)Nc2ccc(Nc3ccnc4[nH]c(=O)c5ccccc5c34)cc2)CC1 [Compound 355, 2-((4-Methylpiperazin-1-yl)methyl)-N-(4-(6-oxo-5,6-dihydrobenzo[c][1,8]naphthyridin-1-ylamino)phenyl)benzamide] |
| > 100 | O=C(Nc1ccc(Nc2ccnc3[nH]c(=O)c4ccccc4c23)cc1)c1ccccc1OCCCN1CCOCC1 [Compound 357, 2-(3-morpholinopropoxy)-N-(4-(6-oxo-5,6-dihydrobenzo[c][1,8]naphthyridin-1-ylamino)phenyl)benzamide] |
| > 100 | O=C(c1cc(F)cc(F)c1)N1CCC(CNc2ccnc3[nH]c(=O)c4ccccc4c23)C1 (centres unmarked) [Compound 362, 1-((1-(3,5-Difluorobenzoyl)pyrrolidin-3-yl)methylamino)benzo[c][1,8]naphthyridin-6(5H)-one] |
| > 100 | O=C(Nc1ccccc1)C1(CNc2ccnc3[nH]c(=O)c4ccccc4c23)CC1 [Compound 363, 1-((6-Oxo-5,6-dihydrobenzo[c][1,8]naphthyridin-1-ylamino)methyl)-N-phenylcyclopropanecarboxamide] |
| > 100 | O=C(c1ccccc1)N1CC(Nc2ccnc3[nH]c(=O)c4ccccc4c23)C1 [Compound 366, 1-(1-Benzoylazetidin-3-ylamino)benzo[c][1,8]naphthyridin-6(5H)-one] |
| > 100 | O=C(Cc1ccccc1)N1CCC(Nc2ccnc3[nH]c(=O)c4ccccc4c23)C1 (centres unmarked) [Compound 369, 1-(1-(2-Phenylacetyl)pyrrolidin-3-ylamino)benzo[c][1,8]naphthyridin-6(5H)-one] |
| > 100 | O=C(CN1CC(Nc2ccnc3[nH]c(=O)c4ccccc4c23)C1)Nc1ccccc1 [Compound 370, 2-(3-(6-Oxo-5,6-dihydrobenzo[c][1,8]naphthyridin-1-ylamino)azetidin-1-yl)-N-phenylacetamide] |
| > 100 | O=C(CN1CCC(Nc2ccnc3[nH]c(=O)c4ccccc4c23)C1)Nc1ccccc1 (centres unmarked) [Compound 371, 2-(3-(6-Oxo-5,6-dihydrobenzo[c][1,8]naphthyridin-1-ylamino)pyrrolidin-1-yl)-N-phenylacetamide] |
| 11 to 100 | O=C(CN1CCC(Nc2ccnc3[nH]c(=O)c4ccccc4c23)CC1)Nc1ccccc1 [Compound 372, 2-(4-(6-Oxo-5,6-dihydrobenzo[c][1,8]naphthyridin-1-ylamino)piperidin-1-yl)-N-phenylacetamide] |
| 11 to 100 | O=C(CN1CCC(Nc2ccnc3[nH]c(=O)c4ccccc4c23)CC1)Nc1cccc(F)c1 [Compound 373, N-(3-Fluorophenyl)-2-(4-(6-oxo-5,6-dihydrobenzo[c][1,8]naphthyridin-1-ylamino)piperidin-1-yl)acetamide] |
| 11 to 100 | O=C(CN1CCC(Nc2ccnc3[nH]c(=O)c4ccccc4c23)CC1)Nc1ccc(F)cc1 [Compound 374, N-(4-Fluorophenyl)-2-(4-(6-oxo-5,6-dihydrobenzo[c][1,8]naphthyridin-1-ylamino)piperidin-1-yl)acetamide] |
| > 100 | CN(C(=O)CN1CCC(Nc2ccnc3[nH]c(=O)c4ccccc4c23)CC1)c1ccccc1 [Compound 377, N-Methyl-2-(4-(6-oxo-5,6-dihydrobenzo[c][1,8]naphthyridin-1-ylamino)piperidin-1-yl)-N-phenylacetamide] |
| < 11 | O=C(Nc1ccc(Nc2ccnc3[nH]c(=O)c4ccccc4c23)cc1)c1ccc(F)cc1C(F)(F)F [Compound 378, 4-Fluoro-N-[4-(6-oxo-5,6-dihydro-benzo[c][1,8]naphthyridin-1-ylamino)-phenyl]-2-trifluoromethyl-benzamide] |
| < 11 | O=C(Nc1ccc(Nc2ccnc3[nH]c(=O)c4ccccc4c23)cc1)c1ccccc1C(F)(F)F [Compound 379, N-[4-(6-Oxo-5,6-dihydro-benzo[c][1,8]naphthyridin-1-ylamino)-phenyl]-2-trifluoromethyl-benzamide] |
| < 11 | O=C(Nc1ccc(Nc2ccnc3[nH]c(=O)c4ccccc4c23)cc1)c1ccccc1F [Compound 380, 2-Fluoro-N-[4-(6-oxo-5,6-dihydro-benzo[c][1,8]naphthyridin-1-ylamino)-phenyl]-benzamide] |
| < 11 | O=C(Nc1ccc(Nc2ccnc3[nH]c(=O)c4ccccc4c23)cc1)c1cccc(F)c1 [Compound 381, 3-Fluoro-N-[4-(6-oxo-5,6-dihydro-benzo[c][1,8]naphthyridin-1-ylamino)-phenyl]-benzamide] |
| < 11 | O=C(Nc1ccc(Nc2ccnc3[nH]c(=O)c4ccccc4c23)cc1)c1ccc(F)cc1 [Compound 382, 4-Fluoro-N-[4-(6-oxo-5,6-dihydro-benzo[c][1,8]naphthyridin-1-ylamino)-phenyl]-benzamide] |
| < 11 | O=C(Nc1ccc(Nc2ccnc3[nH]c(=O)c4ccccc4c23)cc1)c1ccc(F)c(F)c1 [Compound 384, 3,4-Difluoro-N-[4-(6-oxo-5,6-dihydro-benzo[c][1,8]naphthyridin-1-ylamino)-phenyl]-benzamide] |
| < 11 | O=C(Nc1ccc(Nc2ccnc3[nH]c(=O)c4ccccc4c23)cc1)c1cc(F)cc(F)c1 [Compound 385, 3,5-Difluoro-N-[4-(6-oxo-5,6-dihydro-benzo[c][1,8]naphthyridin-1-ylamino)-phenyl]-benzamide] |
